{"source": "patent US10183011B2", "about": "“Anti-depression compounds” (Board of Regents of the University of Texas System, priority 2009, dated 2019)", "key": {"hERG channel": {"biological_target": "hERG channel (Homo sapiens, UniProt Q12809)", "sequence (Q12809 whole entry)": "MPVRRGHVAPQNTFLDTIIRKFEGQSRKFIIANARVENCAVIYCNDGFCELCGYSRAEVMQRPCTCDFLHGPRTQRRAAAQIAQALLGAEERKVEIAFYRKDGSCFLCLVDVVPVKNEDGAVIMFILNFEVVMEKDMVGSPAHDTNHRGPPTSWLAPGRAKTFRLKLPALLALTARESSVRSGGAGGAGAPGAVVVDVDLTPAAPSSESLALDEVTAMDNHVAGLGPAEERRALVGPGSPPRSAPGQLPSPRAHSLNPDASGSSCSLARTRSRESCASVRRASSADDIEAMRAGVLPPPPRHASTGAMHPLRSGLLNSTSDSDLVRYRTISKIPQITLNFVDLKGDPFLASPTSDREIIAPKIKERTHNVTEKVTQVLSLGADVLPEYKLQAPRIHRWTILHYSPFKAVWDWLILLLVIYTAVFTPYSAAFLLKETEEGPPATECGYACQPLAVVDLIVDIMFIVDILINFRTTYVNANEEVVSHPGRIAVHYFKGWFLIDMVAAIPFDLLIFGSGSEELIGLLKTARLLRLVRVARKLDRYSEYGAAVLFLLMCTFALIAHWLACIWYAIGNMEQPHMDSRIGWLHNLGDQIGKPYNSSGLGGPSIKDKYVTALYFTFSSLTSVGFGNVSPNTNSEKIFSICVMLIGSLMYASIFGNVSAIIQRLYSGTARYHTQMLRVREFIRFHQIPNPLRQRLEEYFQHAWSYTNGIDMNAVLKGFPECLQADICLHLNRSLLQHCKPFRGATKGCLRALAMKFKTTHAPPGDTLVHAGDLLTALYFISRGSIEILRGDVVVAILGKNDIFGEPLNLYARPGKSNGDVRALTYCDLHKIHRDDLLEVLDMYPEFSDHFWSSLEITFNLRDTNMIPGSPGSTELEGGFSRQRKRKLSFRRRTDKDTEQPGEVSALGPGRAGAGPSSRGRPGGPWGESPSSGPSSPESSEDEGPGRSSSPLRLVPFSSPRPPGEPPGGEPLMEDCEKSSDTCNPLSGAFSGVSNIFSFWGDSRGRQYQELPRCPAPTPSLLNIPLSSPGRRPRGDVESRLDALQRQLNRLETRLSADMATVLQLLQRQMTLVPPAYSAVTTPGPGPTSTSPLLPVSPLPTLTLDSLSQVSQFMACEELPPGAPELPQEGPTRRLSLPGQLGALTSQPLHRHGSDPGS", "assay": "hERG channel binding"}, "G93A-SOD1 mutant mice": {"test_system": "G93A-SOD1 mutant mice", "assay": "Neurological score and weight loss in G93A-SOD1 mice, treatment from day 80", "type": "in vivo, mouse", "settings": "daily treatment from day 80", "protocol": "Neurological score was performed every day starting with compound treatment at 80 days, and was determined as follows: ‘0’=full extension of hind legs away from lateral midline when the test mouse was suspended by its tail, and could hold this for 2 seconds, suspended 2-3 times; ‘1’=collapse or partial collapse of leg extension towards lateral midline (weakness) or trembling of hind legs during tail suspension; ‘2’=toes curl under at least twice during walking of 12 inches, or any part of foot drags along cage bottom/table; ‘3’=rigid paralysis or minimal joint movement, foot not being used for forward motion; and ‘4’=mouse cannot right itself within 30 seconds from either side. Upon reaching a score of 2, animals were given a fresh Petri dish with wet food in the dish daily. When mice achieved a score of 4 for two consecutive days they were euthanized.\nMice were weighed daily starting on the day of initiation of compound administration in order to assess disease progression and readjust compound dosage. A digital balance with a step of 0.01 g was used, and mice were placed in a small plastic container on the scale when weighed. Weight was taken between 11 am and 1 pm every day."}, "[1]": {"test_system": "TH+ dopaminergic neurons in the substantia nigra", "assay": "MPTP model of Parkinson's disease, treatment before, during and after MPTP", "type": "in vivo, mouse (C57BL/6)", "settings": "10 mg/kg i.p. twice daily; MPTP 30 mg/kg/day for 5 days", "protocol": "FIG. 25A and FIG. 25B. Example 6a Compound (P7C3A20) Provides Therapeutic Benefit in Animal Model of Parkinson's Disease. Mice were treated with MPTP (30 mg/kg i.p.) or Vehicle only for 5 days and then immunohistochemically analyzed for tyrosine hydroxylase staining (TH) 21 days later (FIG. 25A). Treatment with MPTP and Vehicle (n=6) reduced the number of TH+ neurons in the substantia nigra (FIG. 25B) by approximately 50% (*, p=0.0002, Student's t test) relative to mice that received Vehicle only (n=8). […] TH+ neurons in the substantia nigra of every mouse were counted blind to treatment group by two investigators using Image J software, and results were averaged.\nMPTP (1-methyl-4-phenyl-1,2,3,6-tetrahydropyridine) is a potent neurotoxin that selectively kills dopaminergic neurons in the substantia nigra of both mice and monkeys, causing a clinical picture resembling PD. The MPTP toxicity model can therefore be used to study the death of dopaminergic neurons with the goal of developing new treatments for PD based on neuroprotective strategies found to be effective in these neurons. […] TH-positive cells were counted in the substantia nigra area."}, "R6/2 transgenic mice": {"test_system": "R6/2 transgenic mice", "assay": "R6/2 model of Huntington's disease", "type": "in vivo, mouse", "protocol": "FIG. 26A and FIG. 26B. Example 45 Compound (P7C3) Provides Therapeutic Benefit in Animal Model of Huntington's Disease. 40 female R6/2 mice were included in each of VEH (vehicle) and P7C3 (10 mg/kg P7C3 i.p. twice daily) groups, and treatment was begun at 6 weeks of age. […] All measurements were conducted blind to genotype and treatment group.\nIn one hypothesis, P7C3 (and its derivates) may enhance the formation of neurons in the mature hippocampus by preventing death rather than promoting proliferation of these cells. As such, P7C3 is “proneurogenic” by virtue of its neuroprotective activity. It is also possible that P7C3 (and its derivates) prevents cell death and promotes cell proliferation. It was evaluated whether P7C3 might provide therapeutic benefit in R6/2 mice. […] General condition score was determined by a 3 point scoring system that was conducted blind to genotype and treatment group (score of 0=fur looks groomed, normal posture (no hunch), clear eyes, alert; score of 1=fur beginning to stick up, slight hunch; score of 2=piloerection (fur sticking up), unkempt fur, hunch in back or neck area, crusty eyes). Death was monitored twice daily, and defined as either when animals were found dead, or when they were unable to right themselves after being placed on their backs with movement subsequently initiated by gentle prodding for 30 seconds. […]"}, "β-secretase (BACE1)": {"biological_target": "β-secretase (BACE1) (Homo sapiens, UniProt P56817)", "sequence (P56817 46-501, species assumed)": "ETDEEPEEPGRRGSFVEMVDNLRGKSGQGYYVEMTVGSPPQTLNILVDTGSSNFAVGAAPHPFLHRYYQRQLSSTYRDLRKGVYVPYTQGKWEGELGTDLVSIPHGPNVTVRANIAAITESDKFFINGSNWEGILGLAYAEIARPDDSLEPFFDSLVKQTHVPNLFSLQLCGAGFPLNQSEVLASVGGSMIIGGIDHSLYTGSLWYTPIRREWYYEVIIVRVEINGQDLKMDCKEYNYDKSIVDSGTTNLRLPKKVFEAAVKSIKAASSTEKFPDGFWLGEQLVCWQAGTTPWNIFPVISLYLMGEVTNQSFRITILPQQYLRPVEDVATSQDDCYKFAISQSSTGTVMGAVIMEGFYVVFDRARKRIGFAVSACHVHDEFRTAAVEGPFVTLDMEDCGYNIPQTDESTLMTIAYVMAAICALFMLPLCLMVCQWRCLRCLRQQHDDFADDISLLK", "settings": "Asso V., et al. (2008) Chem Med Chem 3:1530-1534; cited from earlier work"}}, "note": "Entries after “also recorded” stand apart in the source; their conditions may differ."}
{"smiles": "COc1cccc(NCC(F)Cn2c3ccc(Br)cc3c3cc(Br)ccc32)c1", "note": "(stereo not drawn) [Example P7C3A20, N-(3-(3,6-dibromo-9H-carbazol-9-yl)-2-fluoropropyl)-3-methoxyaniline]", "values": [{"measurement": "hERG channel binding", "setting": "hERG channel", "result": "no hERG channel binding"}, {"measurement": "other measures of disease progression (neurological score or weight loss)", "setting": "G93A-SOD1 mutant mice", "result": "did not observe any delay in other measures of disease progression"}, {"measurement": "MPTP-mediated death of TH+ neurons in the substantia nigra", "setting": "[1]", "result": "significantly attenuates MPTP-mediated killing of substantia nigra dopaminergic neurons; also recorded: significantly attenuated"}]}
{"smiles": "OC(CNc1ccccc1)Cn1c2ccc(Br)cc2c2cc(Br)ccc21", "note": "(stereo not drawn) [Example P7C3]", "values": [{"measurement": "survival of R6/2 mice", "setting": "R6/2 transgenic mice; 10 mg/kg i.p. twice daily from 6 weeks of age", "result": "delays animal death by about three weeks"}, {"measurement": "general condition score", "setting": "R6/2 transgenic mice; at 14 weeks of age", "result": "improved general condition score and appearance"}]}
{"smiles": "OC(CNc1cccc2ccccc12)Cn1c2ccc(Cl)cc2c2cc(Cl)ccc21", "note": "(stereo not drawn) [Example P7C3-S184]", "values": [{"measurement": "BACE1 inhibition", "setting": "β-secretase (BACE1)", "result": "reported as a β-secretase (BACE1) inhibitor"}]}
